Reference: ChEMBL document CHEMBL3046897, “Synthesis of 3-{4-[4-dimethylamino-6-(4-methyl-2-oxo-2H-chromen-7-yloxy)-[1,3,5]triazin-2-ylamino]-phenyl}-2-phenyl-5-(4-pyridin-2-yl-piperazin-1-ylmethyl)-thiazolidin-4-one and their biological evaluation” (2012)
Converted amounts (≈) assume the structure as drawn.

What was measured:
Assay type in all cases: functional
[1] = test system: Shigella flexneri; assay: Antibacterial activity against Shigella flexneri after 24 hr by agar streak dilution method
[2] = test system: Proteus vulgaris; assay: Antibacterial activity against Proteus vulgaris after 24 hr by agar streak dilution method
[3] = test system: Salmonella typhi; assay: Antibacterial activity against Salmonella enterica subsp. enterica serovar Typhi after 24 hr by agar streak dilution method
[4] = test system: Klebsiella pneumoniae; assay: Antibacterial activity against Klebsiella pneumoniae after 24 hr by agar streak dilution method
[5] = test system: Candida albicans; assay: Antifungal activity against Candida albicans at 100 ug/disk after 48 hr by paper disk diffusion method; details: read-out: IZ
[6] = test system: Aspergillus clavatus; assay: Antifungal activity against Aspergillus clavatus at 100 ug/disc after 48 hr by paper disk diffusion method; details: read-out: IZ
[7] = test system: Aspergillus fumigatus; assay: Antifungal activity against Aspergillus fumigatus at 100 ug/disc after 48 hr by paper disk diffusion method; details: read-out: IZ
[8] = test system: Aspergillus niger; assay: Antifungal activity against Aspergillus niger at 100 ug/disk after 48 hr by paper disk diffusion method; details: read-out: IZ
[9] = test system: Candida albicans; assay: Antifungal activity against Candida albicans after 48 hr by agar streak dilution method
[10] = test system: Aspergillus clavatus; assay: Antifungal activity against Aspergillus clavatus after 48 hr by agar streak dilution method
[11] = test system: Aspergillus niger; assay: Antifungal activity against Aspergillus niger after 48 hr by agar streak dilution method
[12] = test system: Pseudomonas aeruginosa; assay: Antibacterial activity against Pseudomonas aeruginosa after 24 hr by agar streak dilution method
[13] = test system: Escherichia coli; assay: Antibacterial activity against Escherichia coli after 24 hr by agar streak dilution method
[14] = test system: Shigella flexneri; assay: Antibacterial activity against Shigella flexneri at 100 ug/disc after 24 hr by paper disk diffusion method; details: read-out: IZ
[15] = test system: Proteus vulgaris; assay: Antibacterial activity against Proteus vulgaris at 100 ug/disk after 24 hr by paper disk diffusion method; details: read-out: IZ
[16] = test system: Salmonella typhi; assay: Antibacterial activity against Salmonella enterica subsp. enterica serovar Typhi at 100 ug/disk after 24 hr by paper disk diffusion method; details: read-out: IZ
[17] = test system: Klebsiella pneumoniae; assay: Antibacterial activity against Klebsiella pneumoniae at 100 ug/disk after 24 hr by paper disk diffusion method; details: read-out: IZ
[18] = test system: Pseudomonas aeruginosa; assay: Antibacterial activity against Pseudomonas aeruginosa at 100 ug/disk after 24 hr by paper disk diffusion method; details: read-out: IZ
[19] = test system: Escherichia coli; assay: Antibacterial activity against Escherichia coli at 100 ug/disk after 24 hr by paper disk diffusion method; details: read-out: IZ
[20] = test system: Bacillus subtilis; assay: Antibacterial activity against Bacillus subtilis after 24 hr by agar streak dilution method
[21] = test system: Staphylococcus aureus; assay: Antibacterial activity against Staphylococcus aureus after 24 hr by agar streak dilution method
[22] = test system: Bacillus subtilis; assay: Antibacterial activity against Bacillus subtilis at 100 ug/disk after 24 hr by paper disk diffusion method; details: read-out: IZ
[23] = test system: Staphylococcus aureus; assay: Antibacterial activity against Staphylococcus aureus at 100 ug/disc after 24 hr by paper disk diffusion method; details: read-out: IZ
[24] = test system: Aspergillus fumigatus; assay: Antifungal activity against Aspergillus fumigatus after 48 hr by agar streak dilution method

SMILES: Cc1cc(=O)oc2cc(Oc3nc(Nc4ccc(/N=C/c5ccc(O)cc5)cc4)nc(N(C)C)n3)ccc12
- MIC [1]: 100 µg/mL (≈ 197 µM)
- MIC [2]: 50 µg/mL (≈ 98.3 µM)
- MIC [3]: 50 µg/mL (≈ 98.3 µM)
- MIC [4]: 100 µg/mL (≈ 197 µM)
- zone of inhibition at 100 µg/disc [5]: 16 mm
- zone of inhibition at 100 µg/disc [6]: 14 mm
- zone of inhibition at 100 µg/disc [7]: 18 mm
- zone of inhibition at 100 µg/disc [8]: 20 mm
- MIC [9]: 100 µg/mL (≈ 197 µM)
- MIC [10]: 100 µg/mL (≈ 197 µM)
- MIC [11]: 50 µg/mL (≈ 98.3 µM)
- MIC [12]: 50 µg/mL (≈ 98.3 µM)
- MIC [13]: 25 µg/mL (≈ 49.2 µM)
- zone of inhibition at 100 µg/disc [14]: 17 mm
- zone of inhibition at 100 µg/disc [15]: 19 mm
- zone of inhibition at 100 µg/disc [16]: 19 mm
- zone of inhibition at 100 µg/disc [17]: 11 mm
- zone of inhibition at 100 µg/disc [18]: 18 mm
- zone of inhibition at 100 µg/disc [19]: 20 mm
- MIC [20]: 50 µg/mL (≈ 98.3 µM)
- MIC [21]: 25 µg/mL (≈ 49.2 µM)
- zone of inhibition at 100 µg/disc [22]: 18 mm
- zone of inhibition at 100 µg/disc [23]: 20 mm
- MIC [24]: 50 µg/mL (≈ 98.3 µM)

SMILES: Cc1cc(=O)oc2cc(Oc3nc(Nc4ccc(N5C(=O)CSC5c5ccc(F)cc5)cc4)nc(N(C)C)n3)ccc12 (centres undefined)
- MIC [1]: 50 µg/mL (≈ 85.5 µM)
- MIC [2]: 25 µg/mL (≈ 42.8 µM)
- MIC [3]: 50 µg/mL (≈ 85.5 µM)
- MIC [4]: 100 µg/mL (≈ 171 µM)
- zone of inhibition at 100 µg/disc [5]: 24 mm
- zone of inhibition at 100 µg/disc [6]: 22 mm
- zone of inhibition at 100 µg/disc [7]: 18 mm
- zone of inhibition at 100 µg/disc [8]: 25 mm
- MIC [9]: 12.5 µg/mL (≈ 21.4 µM)
- MIC [10]: 25 µg/mL (≈ 42.8 µM)
- MIC [11]: 12.5 µg/mL (≈ 21.4 µM)
- MIC [12]: 25 µg/mL (≈ 42.8 µM)
- MIC [13]: 50 µg/mL (≈ 85.5 µM)
- zone of inhibition at 100 µg/disc [14]: 18 mm
- zone of inhibition at 100 µg/disc [15]: 20 mm
- zone of inhibition at 100 µg/disc [16]: 17 mm
- zone of inhibition at 100 µg/disc [17]: 15 mm
- zone of inhibition at 100 µg/disc [18]: 22 mm
- zone of inhibition at 100 µg/disc [19]: 17 mm
- MIC [20]: 25 µg/mL (≈ 42.8 µM)
- MIC [21]: 25 µg/mL (≈ 42.8 µM)
- zone of inhibition at 100 µg/disc [22]: 20 mm
- zone of inhibition at 100 µg/disc [23]: 23 mm
- MIC [24]: 50 µg/mL (≈ 85.5 µM)

SMILES: COc1ccc(C2SC(CN3CCN(c4ccccn4)CC3)C(=O)N2c2ccc(Nc3nc(Oc4ccc5c(C)cc(=O)oc5c4)nc(N(C)C)n3)cc2)cc1OC (centres undefined)
- MIC [1]: 50 µg/mL (≈ 62.3 µM)
- MIC [2]: 100 µg/mL (≈ 125 µM)
- MIC [3]: 50 µg/mL (≈ 62.3 µM)
- MIC [4]: 100 µg/mL (≈ 125 µM)
- zone of inhibition at 100 µg/disc [5]: < 10 mm
- zone of inhibition at 100 µg/disc [6]: 17 mm
- zone of inhibition at 100 µg/disc [7]: 13 mm
- zone of inhibition at 100 µg/disc [8]: 19 mm
- MIC [9]: 100 µg/mL (≈ 125 µM)
- MIC [10]: 50 µg/mL (≈ 62.3 µM)
- MIC [11]: 50 µg/mL (≈ 62.3 µM)
- MIC [12]: 100 µg/mL (≈ 125 µM)
- MIC [13]: 100 µg/mL (≈ 125 µM)
- zone of inhibition at 100 µg/disc [14]: 19 mm
- zone of inhibition at 100 µg/disc [15]: 15 mm
- zone of inhibition at 100 µg/disc [16]: 17 mm
- zone of inhibition at 100 µg/disc [17]: 11 mm
- zone of inhibition at 100 µg/disc [18]: 15 mm
- zone of inhibition at 100 µg/disc [19]: 13 mm
- MIC [20]: 50 µg/mL (≈ 62.3 µM)
- MIC [21]: 25 µg/mL (≈ 31.2 µM)
- zone of inhibition at 100 µg/disc [22]: 17 mm
- zone of inhibition at 100 µg/disc [23]: 20 mm
- MIC [24]: 100 µg/mL (≈ 125 µM)

SMILES: Cc1cc(=O)oc2cc(Oc3nc(Nc4ccc(/N=C/c5cccc(F)c5)cc4)nc(N(C)C)n3)ccc12
- MIC [1]: 50 µg/mL (≈ 97.9 µM)
- MIC [2]: 100 µg/mL (≈ 196 µM)
- MIC [3]: 25 µg/mL (≈ 49 µM)
- MIC [4]: 50 µg/mL (≈ 97.9 µM)
- zone of inhibition at 100 µg/disc [5]: 13 mm
- zone of inhibition at 100 µg/disc [6]: 17 mm
- zone of inhibition at 100 µg/disc [7]: 14 mm
- zone of inhibition at 100 µg/disc [8]: 18 mm
- MIC [9]: 100 µg/mL (≈ 196 µM)
- MIC [10]: 50 µg/mL (≈ 97.9 µM)
- MIC [11]: 50 µg/mL (≈ 97.9 µM)
- MIC [12]: 100 µg/mL (≈ 196 µM)
- MIC [13]: 50 µg/mL (≈ 97.9 µM)
- zone of inhibition at 100 µg/disc [14]: 19 mm
- zone of inhibition at 100 µg/disc [15]: 14 mm
- zone of inhibition at 100 µg/disc [16]: 18 mm
- zone of inhibition at 100 µg/disc [17]: 16 mm
- zone of inhibition at 100 µg/disc [18]: 17 mm
- zone of inhibition at 100 µg/disc [19]: 20 mm
- MIC [20]: 50 µg/mL (≈ 97.9 µM)
- MIC [21]: 100 µg/mL (≈ 196 µM)
- zone of inhibition at 100 µg/disc [22]: 16 mm
- zone of inhibition at 100 µg/disc [23]: 13 mm
- MIC [24]: 100 µg/mL (≈ 196 µM)

SMILES: Cc1cc(=O)oc2cc(Oc3nc(Nc4ccc(N5C(=O)C(CN6CCN(c7ccccn7)CC6)SC5c5ccc(O)cc5)cc4)nc(N(C)C)n3)ccc12 (centres undefined)
- MIC [1]: 25 µg/mL (≈ 33 µM)
- MIC [2]: 12.5 µg/mL (≈ 16.5 µM)
- MIC [3]: 6.25 µg/mL (≈ 8.25 µM)
- MIC [4]: 25 µg/mL (≈ 33 µM)
- zone of inhibition at 100 µg/disc [5]: 23 mm
- zone of inhibition at 100 µg/disc [6]: 21 mm
- zone of inhibition at 100 µg/disc [7]: 25 mm
- zone of inhibition at 100 µg/disc [8]: 27 mm
- MIC [9]: 12.5 µg/mL (≈ 16.5 µM)
- MIC [10]: 25 µg/mL (≈ 33 µM)
- MIC [11]: 6.25 µg/mL (≈ 8.25 µM)
- MIC [12]: 12.5 µg/mL (≈ 16.5 µM)
- MIC [13]: 6.25 µg/mL (≈ 8.25 µM)
- zone of inhibition at 100 µg/disc [14]: 22 mm
- zone of inhibition at 100 µg/disc [15]: 25 mm
- zone of inhibition at 100 µg/disc [16]: 27 mm
- zone of inhibition at 100 µg/disc [17]: 19 mm
- zone of inhibition at 100 µg/disc [18]: 23 mm
- zone of inhibition at 100 µg/disc [19]: 30 mm
- MIC [20]: 6.25 µg/mL (≈ 8.25 µM)
- MIC [21]: 6.25 µg/mL (≈ 8.25 µM)
- zone of inhibition at 100 µg/disc [22]: 25 mm
- zone of inhibition at 100 µg/disc [23]: 27 mm
- MIC [24]: 6.25 µg/mL (≈ 8.25 µM)

SMILES: Cc1ccc(/C=N/c2ccc(Nc3nc(Oc4ccc5c(C)cc(=O)oc5c4)nc(N(C)C)n3)cc2)cc1
- MIC [1]: 50 µg/mL (≈ 98.7 µM)
- MIC [2]: 100 µg/mL (≈ 197 µM)
- MIC [3]: 50 µg/mL (≈ 98.7 µM)
- MIC [4]: 100 µg/mL (≈ 197 µM)
- zone of inhibition at 100 µg/disc [5]: 17 mm
- zone of inhibition at 100 µg/disc [6]: 16 mm
- zone of inhibition at 100 µg/disc [7]: 15 mm
- zone of inhibition at 100 µg/disc [8]: 17 mm
- MIC [9]: 50 µg/mL (≈ 98.7 µM)
- MIC [10]: 100 µg/mL (≈ 197 µM)
- MIC [11]: 50 µg/mL (≈ 98.7 µM)
- MIC [12]: 50 µg/mL (≈ 98.7 µM)
- MIC [13]: 100 µg/mL (≈ 197 µM)
- zone of inhibition at 100 µg/disc [14]: 18 mm
- zone of inhibition at 100 µg/disc [15]: 11 mm
- zone of inhibition at 100 µg/disc [16]: 17 mm
- zone of inhibition at 100 µg/disc [17]: 10 mm
- zone of inhibition at 100 µg/disc [18]: 18 mm
- zone of inhibition at 100 µg/disc [19]: < 10 mm
- MIC [20]: 50 µg/mL (≈ 98.7 µM)
- MIC [21]: 100 µg/mL (≈ 197 µM)
- zone of inhibition at 100 µg/disc [22]: 17 mm
- zone of inhibition at 100 µg/disc [23]: 16 mm
- MIC [24]: 100 µg/mL (≈ 197 µM)
